Experimental data: EP0182152B1, “Antitumor antibiotics (LL-E33288 Complex)” (AMERICAN CYANAMID COMPANY, priority 1984, dated 1986)

Columns and labels:
[1] = system: lymphocytic leukemia L1210; test: Lymphocytic Leukemia L1210 Test; assay type: in vivo, BDF1 mice; conditions: Table VI, i.p., control 8.3 days
Description: (§1) Certain in vivo testing systems and protocols have been developed by the National Cancer Institute for testing compounds to determine their suitability as anti-neoplastic agents. These have been reported in "Cancer Chemotherapy Reports", Part III, Vol. 3, No. 2 (1972), Geran, et al. These protocols have established standardized screening tests which are generally followed in the field of testing for antitumor agents. Of these systems, lymphocytic leukemia P388, melanotic melanoma B16, L1210 leukemia and colon 26 adenocarcinoma are particularly significant to the present invention. These neoplasms are utilized for testing as transplantable tumors in mice. Generally, significant anti-tumor activity, shown in these protocols by a percentage increase of mean survival times of the treated animals (T) over the control animals (C), is indicative of similar results in human leukemias and solid tumors.
The animals used were BDF1 mice, all of one sex, weighing a minimum of 17 g and all within a 3 g weight range. There were 6 mice in each test group and 18 in control groups. The tumor transplant was by intraperitoneal injection of 0.5 ml of lymphocytic leukemia L1210 at a concentration of 10^5 cells per mouse. LL-E33288 antibiotics were tested in the L1210 system both as the individual β1-Br component and as a complex of all components (Bromo-complex). The test compounds were administered on days 1, 5 and 9 or days 1 through 9 (relative to tumor inoculation) at various doses. The mice were weighed and survivors recorded on a regular basis for 30 days. The median survival time and the ratio of survival time for treated (T)/control (C) animals were calculated. The positive control compound was 1,4-dihydroxy-5,8-bis[[2-(2-hydroxyethylamino)ethyl]amino]anthraquinone dihydrochloride or Cisplatin given intraperitoneally at the indicated dose. If T/C X 100 (%) is 125 or over, the tested compound is considered to have significant anti-tumor activity.
(§2) In the same manner, the following iodo-components were tested for antineoplastic activity.

melanotic melanoma B16 = test: Melanotic Melanoma B16 Test; assay type: in vivo, BDF1 mice; conditions: Table V, i.p. days 1 through 9, control 16 days
Description: as §1
The animals used were BDF1 mice, all of the same sex, weighing a minimum of 17 g and all within a 3 g weight range. There are normally 6 animals per test group. A 1 g portion of melanotic melanoma β16 tumor was homogenized in 10 ml of cold balanced salt solution and a 0.5 ml aliquot of the homogenate was implanted intraperitoneally into each of the test mice. LL-E33288 antibiotics were tested in the β16 system both as the individual β1-Br and γ1-Br components and as a complex of all components (Bromo-complex). The test compounds were administered intraperitioneally on days 1 through 9 (relative to tumor inoculation) at various doses. The mice were weighed and survivors recorded on a regular basis for 60 days. The median survival time and the ratio of survival time for treated (T)/control (C) animals were calculated. The positive control compounds were Cisplatin or Adriamycin. The results of this test appear in Table V. If T/C X 100 (%) is 125 or over, the tested compound is considered to have significant anti-tumor activity.
as §2

Colon 26 tumor = test: Colon 26 Adenocarcinoma Test; assay type: in vivo, CD2F1 female mice
Description: as §1
The animals used were CD2F1 female mice weighing a minimum of 17 g and all within a 3 g weight range. There were 5 or 6 mice per test group with three groups of 5 or 6 animals used as untreated controls for each test. The tumor implant was by intraperitoneal (or subcutaneous) injection of 0.5 ml of a 2% Colon 26 tumor brei in Eagle's MEM medium containing antibiotics. LL-E33288 antibiotics were tested in the Colon 26 system as a complex (Bromo-complex) of all components. The test compounds were administered intraperitoneally on days 1, 5 and 9 (relative to tumor implant doses). The mice were weighed and deaths recorded on a regular basis for 30 days. The median survival times for treated (T)/control (C) animals were calculated. The positive control compound was Cisplatin. If T/C X 100 (%) is 130 or over, the tested compound is considered to have significant anti-tumor activity.
as §2

[2] = system: lymphocytic leukemia P388; test: Lymphocytic Leukemia P388 Test; assay type: in vivo, BDF1 mice; conditions: Table IV, i.p. days 1, 5 and 9
Description: as §1
The animals used were BDF1 mice, all of one sex, weighing a minimum of 17 g and all within a 3 g weight range. There were 5 or 6 mice per test group. The tumor transplant was by intraperitoneal injection of 0.5 ml of dilute ascitic fluid containing 10^6 cells of lymphocytic leukemia P388. LL-E33288 antibiotics were tested in the P388 system both as the individual β1-Br and […] components and as a complex of all components (Bromo-complex). The test compounds were administered intrapertioneally at a volume of 0.5 ml in 0.2% Klucel in normal saline on days 1, 5 and 9 (relative to tumor inoculation) at the indicated doses. The mice were weighed and the survivors recorded on a regular basis for 30 days. The median survival time and the ratio of survival time for treated (T)/control (C) animals were calculated. The positive control compound was Cisplatin given as an intraperitioneal injection in 0.5 ml of 0.2% Klucel on days 1, 5 and 9 at the indicated doses.
If T/C X 100 (%) is 125 or over, the tested compound is considered to have significant anti-tumor activity.
as §2

[3] = Table VII, i.p. days 1, 5 and 9, dose 0.25 mg/kg, control 18.6 days
[4] = Table VII, i.p. days 1, 5 and 9, dose 0.5 mg/kg, control 18.6 days
[5] = Table VII, i.p. days 1, 5 and 9, dose 1 mg/kg, control 18.6 days
[6] = Table XII, dose 0.5 mg/kg, control 18.5 days
[7] = Table XII, dose 1 mg/kg, control 18.5 days
[8] = Table XII, dose 2 mg/kg, control 18.5 days
[9] = dose 0.06 mg/kg, control 10.6 days
[10] = dose 0.06 mg/kg, control 12.4 days
[11] = dose 0.25 mg/kg, control 10.6 days
[12] = dose 0.4 mg/kg, control 12.4 days
[13] = dose 1.0 mg/kg, control 10.6 days
[14] = dose 1.0 mg/kg, control 12.4 days

With `N.N.[Cl][Pt][Cl]` [Cisplatin, reference compound] the “Median Survival” value ([1]; dose 1.25 mg/kg) was 11 days, the “T/C x 100” value ([1]; dose 1.25 mg/kg) was 133% and the “Median Survival” value ([1]; dose 2.5 mg/kg) was 12 days. The “T/C x 100” value ([1]; dose 2.5 mg/kg) was 145%, the “Median Survival” value ([1]; dose 5 mg/kg) was 7.5 days and the “T/C x 100” value ([1]; dose 5 mg/kg) was 90%. For the same compound, the “Median Survival” value (melanotic melanoma B16; dose 0.05 mg/kg) was 21.5 days, the “T/C x 100” value (melanotic melanoma B16; dose 0.05 mg/kg) was 134% and the “Median Survival” value (melanotic melanoma B16; dose 0.1 mg/kg) was 23 days. For the same compound, the “T/C x 100” value (melanotic melanoma B16; dose 0.1 mg/kg) was 144%, the “Median Survival” value (melanotic melanoma B16; dose 0.2 mg/kg) was 25 days and the “T/C x 100” value (melanotic melanoma B16; dose 0.2 mg/kg) was 156%. For the same compound, the “Median Survival” value (melanotic melanoma B16; dose 0.4 mg/kg) was 25 days, the “T/C x 100” value (melanotic melanoma B16; dose 0.4 mg/kg) was 156% and the “Median Survival” value (Colon 26 tumor; [3]) was 37.5 days. The “T/C x 100” value (Colon 26 tumor; [3]) was 202%, the “Median Survival” value (Colon 26 tumor; [4]) was 38.5 days and the “T/C x 100” value (Colon 26 tumor; [4]) was 207%. The “Median Survival” value (Colon 26 tumor; [5]) was 29 days, the “T/C x 100” value (Colon 26 tumor; [5]) was 156% and the “Median Survival” value (Colon 26 tumor; [6]) was 23.5 days. For the same compound, the “T/C x 100” value (Colon 26 tumor; [6]) was 127%, the “Median Survival” value (Colon 26 tumor; [7]) was 27.5 days and the “T/C x 100” value (Colon 26 tumor; [7]) was 149%. The “Median Survival” value (Colon 26 tumor; [8]) was 15.5 days, the “T/C x 100” value (Colon 26 tumor; [8]) was 84% and the “Median Survival” value [2, 9] was 14.5 days. The “T/C x 100” value [2, 9] was 137%, the “Median Survival” value [2, 10] was 15 days and the “T/C x 100” value [2, 10] was 121%. The “Median Survival” value [2, 11] was 15 days, the “T/C x 100” value [2, 11] was 142% and the “Median Survival” value [2, 12] was 19 days. The “T/C x 100” value [2, 12] was 153%, the “Median Survival” value [2, 13] was 21.5 days and the “T/C x 100” value [2, 13] was 203%. For the same compound, the “Median Survival” value [2, 14] was 25.5 days and the “T/C x 100” value [2, 14] was 206%.
